# Test results published in PubChem BioAssay AID588657 (The Scripps Research Institute Molecular Screening Center, 2011).
# The source made the active and inactive calls.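 Rule for the calls: active = EGR1 protein level shifted at least 30% up or down versus solvent-only cells; inactive = shift under 30% either way.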
# Target: Early growth response protein 1 (Homo sapiens) (UniProt P18146)
# Assay: altered EGR1 protein amount, HT29 – cell-based, HT29 colorectal carcinoma, chemiluminescent western blot, counter-screen for KLF5 inhibitor project, late-stage follow-up (AID 588657)
# Details: HT29 cells, 24 h, at 10 µM, active compounds read high
# Chain of Early growth response protein 1 (Homo sapiens) (P18146 whole entry, looked up): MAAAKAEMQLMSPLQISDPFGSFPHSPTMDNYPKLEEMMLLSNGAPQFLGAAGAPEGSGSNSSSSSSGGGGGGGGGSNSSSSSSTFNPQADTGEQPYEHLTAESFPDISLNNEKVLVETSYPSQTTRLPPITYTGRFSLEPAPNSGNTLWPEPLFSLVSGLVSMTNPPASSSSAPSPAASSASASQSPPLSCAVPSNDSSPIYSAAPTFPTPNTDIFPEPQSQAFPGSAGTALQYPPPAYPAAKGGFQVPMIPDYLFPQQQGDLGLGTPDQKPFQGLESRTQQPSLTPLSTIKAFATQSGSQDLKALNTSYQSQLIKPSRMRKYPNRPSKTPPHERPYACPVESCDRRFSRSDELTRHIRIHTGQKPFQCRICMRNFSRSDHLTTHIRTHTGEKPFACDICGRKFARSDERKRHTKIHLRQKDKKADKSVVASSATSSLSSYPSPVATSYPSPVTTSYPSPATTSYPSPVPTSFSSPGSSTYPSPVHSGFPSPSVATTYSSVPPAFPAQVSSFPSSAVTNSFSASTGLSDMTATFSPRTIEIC
row,inhibition,SMILES
1,9.34% (inactive),CN(C(=O)CNC(=O)/C=C/c1cccc(Cl)c1)C1CCS(=O)(=O)C1 (stereo not drawn)
2,64.5%,CN(C(=O)CNC(=O)/C=C/c1cccc(Cl)c1)C1CCS(=O)(=O)CC1
3,29.7%,CN(C(=O)COC(=O)/C=C/c1cccc([N+](=O)[O-])c1)C1CCS(=O)(=O)C1 (stereo not drawn)
